Laboratory results taken from patent US7858621B2 (Amorepacific Corporation, priority 2006, dated 2010).

Biological target: T1, vanilloid receptor (Rattus norvegicus, UniProt O35433)
T1 construct: DRG nerve cells from the primary culture of 2 days were equilibrated; endogenous in cells; host or cells: primary culture of dorsal root ganglion neurons from neonatal SD rats
Assay: 45Ca influx test in cultured neonatal rat DRG neurons, inhibition of capsaicin response
Type: cell-based
Settings: neonatal rat DRG neurons, capsaicin 0.5 μM, 45Ca influx; read-out: Antagonist Calcium Uptake Test (IC50)
Method: 1) Separation of Spinal Dorsal Root Ganglia (DRG) in Newborn Rats and Primary Culture Thereof
Neonatal (2-3 day old or younger than 2-3 day old) SD rats were put in ice for 5 minutes to anesthetize and disinfected with 70% ethanol. […] The DRG were incubated sequentially at 37° C. for 30 mins in 200 U/ml collagenase and 2.5 mg/ml trypsin, separately. The ganglia were washed twice with DME/F12 medium supplemented with 10% horse serum, triturated through a fire-polished Pasteur pipette, filtered through Nitex 80 membrane to obtain single cell suspension and the suspension was washed once more. This was subjected to centrifugation, then resuspended in cell culture medium at certain level of cell density. As the cell culture medium, DME/F12 medium supplemented with 10% horse serum was diluted with identical medium conditioned by C6 glioma cells 2 days on a confluent monolayer (1:1), and NGF (Nerve Growth Factor) was added to adjust 200 ng/ml as final concentration. After the cells were grown 2 days in medium where cytosine arabinoside (Ara-C, 100 μM) was added to kill dividing nonneuronal cells, medium was changed to one without Ara-C. The resuspended cells were plated at a density of 1500-2000 neurons/well onto Terasaki plates previously coated with 10 μg/ml poly-D-ornithine.
2) ^45Ca Influx Experiments
DRG nerve cells from the primary culture of 2 days were equilibrated by washing 4 times with HEPES (10 mM, pH 7.4)-buffered Ca^2+, Mg^2+-free HBSS (H-HBSS). The solution in each well was removed from the individual well. Medium containing the test compound plus capsaicin (final concentration 0.5 μM) and ^45Ca (final concentration 10 μCi/ml) in H-HBSS was added to each well and incubated at room temperature for 10 mins. Terasaki plates were washed five times with H-HBSS and dried at room temperature. To each well, 0.3% SDS (10 μl) was added to elute ^45Ca. After the addition of scintillation cocktail of into each well, the amount of ^45Ca influx into neuron was measured by counting radioactivity.

T1 sequence (O35433 whole entry): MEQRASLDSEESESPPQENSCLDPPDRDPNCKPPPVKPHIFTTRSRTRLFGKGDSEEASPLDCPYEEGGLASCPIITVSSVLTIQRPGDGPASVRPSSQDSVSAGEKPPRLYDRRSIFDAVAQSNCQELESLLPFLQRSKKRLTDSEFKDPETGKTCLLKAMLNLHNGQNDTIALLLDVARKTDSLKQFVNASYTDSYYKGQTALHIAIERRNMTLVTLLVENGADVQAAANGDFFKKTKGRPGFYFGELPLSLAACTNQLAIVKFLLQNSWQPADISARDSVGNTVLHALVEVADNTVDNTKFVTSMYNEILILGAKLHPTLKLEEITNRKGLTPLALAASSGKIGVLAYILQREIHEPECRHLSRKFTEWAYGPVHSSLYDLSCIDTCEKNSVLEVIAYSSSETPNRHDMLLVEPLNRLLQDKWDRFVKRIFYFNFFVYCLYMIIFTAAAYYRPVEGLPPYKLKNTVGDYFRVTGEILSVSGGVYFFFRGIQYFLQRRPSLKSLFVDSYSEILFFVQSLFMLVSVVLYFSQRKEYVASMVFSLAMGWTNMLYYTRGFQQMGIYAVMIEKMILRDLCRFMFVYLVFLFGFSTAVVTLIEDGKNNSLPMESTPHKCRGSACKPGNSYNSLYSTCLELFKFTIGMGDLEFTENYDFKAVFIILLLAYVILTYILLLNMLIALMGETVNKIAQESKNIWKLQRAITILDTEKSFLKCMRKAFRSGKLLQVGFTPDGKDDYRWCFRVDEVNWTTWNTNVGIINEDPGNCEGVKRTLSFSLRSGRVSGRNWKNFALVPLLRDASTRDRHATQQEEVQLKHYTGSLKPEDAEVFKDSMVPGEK

Row | Compound | IC50
1 | C#Cc1cc(CNC(=O)/C=C/c2ccc(C(F)(F)F)nc2OC2CCOC2)cc(F)c1NS(C)(=O)=O (stereo not shown) [Example 79, 3-[2-(Tetrahydro-furan-3-yloxy)-6-trifluoromethyl-pyridin-3-yl]-N-(3-ethynyl-5-fluoro-4-methanesulfonylamino-benzyl)-acrylamide] | 430 nM
2 | CS(=O)(=O)Nc1ccc(CNC(=O)/C=C/c2ccc(C(F)(F)F)nc2CCc2ccccc2)cc1F [Example 141, N-(3-Fluoro-4-methanesulfonylamino-benzyl)-3-(2-phenethyl-6-trifluoromethyl-pyridin-3-yl)-acrylamide] | 180 nM
3 | C#Cc1cc(CNC(=O)/C=C(\CCC)c2ccc(C(F)(F)F)nc2CCC)cc(F)c1NS(C)(=O)=O [Example 276] | 240 nM
4 | C#Cc1cc(CNC(=O)/C=C/c2ccc(C(F)(F)F)nc2-c2cccnc2)cc(F)c1NS(C)(=O)=O [Example 126, N-(3-Ethynyl-5-fluoro-4-methanesulfonylamino-benzyl)-3-(2-pyridin-3-yl-6-trifluoromethyl-pyridin-3-yl)-acrylamide] | 4900 nM
5 | C#Cc1cc(CNC(=O)/C=C/c2ccc(C(F)(F)F)nc2/C=C/c2ccccc2)cc(F)c1NS(C)(=O)=O [Example 157, N-(3-Ethynyl-5-fluoro-4-methanesulfonylamino-benzyl)-3-(2-styryl-6-trifluoromethyl-pyridin-3-yl)-acrylamide] | 450 nM
6 | CCCCCc1nc(C(F)(F)F)ccc1/C=C/C(=O)N[C@H](C)c1ccc(NS(C)(=O)=O)c(F)c1 [Example 215, (R)—N-[1-(3-Fluoro-4-methanesulfonylamino-phenyl)-ethyl]-3-(2-pentyl-6-trifluoromethyl)-pyridin-3-yl-acrylamide] | 54 nM
7 | CCCCc1nc(C(F)(F)F)ccc1/C=C/C(=O)NCc1cc(C)c(NS(C)(=O)=O)c(F)c1 [Example 192, 3-(2-Butyl-6-trifluoromethyl-pyridin-3-yl)-N-(3-fluoro-4-methanesulfonylamino-5-methyl-benzyl)-acrylamide] | 90 nM
8 | COCCNc1nc(C(F)(F)F)ccc1/C=C/C(=O)N[C@H](C)c1ccc(NS(C)(=O)=O)c(F)c1 [Example 212, (R)—N-[1-(3-Fluoro-4-methanesulfonylamino-phenyl)-ethyl]-3-[2-(2-methoxy-ethylamino)-6-trifluoromethyl-pyridin-3-yl]-acrylamide] | 110 nM
9 | CC(C)Oc1nc(C(F)(F)F)ccc1/C=C/C(=O)NCc1ccc(NS(C)(=O)=O)c(F)c1 [Example 108, N-(3-Fluoro-4-methanesulfonylamino-benzyl)-3-(2-isopropoxy-6-trifluoromethyl-pyridin-3-yl)-acrylamide] | 740 nM
10 | C#Cc1cc(CNC(=O)/C=C/c2ccc(C(F)(F)F)nc2-c2cccc(F)c2)cc(F)c1NS(C)(=O)=O [Example 120, N-(3-Ethynyl-5-fluoro-4-methanesulfonylamino-benzyl)-3-[2-(3-fluoro-phenyl)-6-trifluoromethyl-pyridin-3-yl]-acrylamide] | 310 nM
11 | CS(=O)(=O)Nc1ccc(CNC(=O)/C=C/c2ccc(C(F)(F)F)nc2CCc2ccccc2)cc1 [Example 264, N-(4-Methanesulfonylamino-benzyl)-3-(2-phenethyl-6-trifluoromethyl-pyridin-3-yl)-acrylamide] | 340 nM
12 | Cc1cc(CNC(=O)/C=C/c2ccc(C(F)(F)F)nc2CC(C)C)cc(F)c1NS(C)(=O)=O [Example 164, N-(3-Fluoro-4-methanesulfonylamino-5-methyl-benzyl)-3-(2-isobutyl-6-trifluoromethyl-pyridin-3-yl)-acrylamide] | 83 nM
13 | CCNc1nc(C(F)(F)F)ccc1/C=C/C(=O)NCc1cc(F)c(NS(C)(=O)=O)c(C#N)c1 [Example 259, N-(3-Cyano-5-fluoro-4-methanesulfonylamino-benzyl)-3-(2-ethylamino-6-trifluoromethyl-pyridin-3-yl)-acrylamide] | 190 nM
14 | C#Cc1cc(CNC(=O)/C=C/c2ccc(C(F)(F)F)nc2-n2cccn2)cc(F)c1NS(C)(=O)=O [Example 80, N-(3-Ethynyl-5-fluoro-4-methanesulfonylamino-benzyl)-3-[2-pyrazol-1-yl-6-trifluoromethyl-pyridin-3-yl]-acrylamide] | 3100 nM
15 | CCNc1nc(C(F)(F)F)ccc1/C=C/C(=O)N[C@H](C)c1cc(F)c(NS(C)(=O)=O)c(F)c1 [Example 244, (R)—N-[1-(3,5-Difluoro-4-methanesulfonylamino-phenyl)-ethyl]-3-(2-ethylamino-6-trifluoromethyl-pyridin-3-yl)-acrylamide] | 67 nM
16 | C=Cc1cc(CNC(=O)/C=C/c2ccc(C(C)(C)C)nc2)cc(F)c1NS(C)(=O)=O [Example 10, 3-(6-tert-Butyl-pyridin-3-yl)-N-(3-fluoro-4-methanesulfonylamino-5-vinyl-benzyl)-acrylamide] | 280 nM
17 | C#Cc1cc(CNC(=O)/C=C/c2ccc(C(F)(F)F)nc2N(C)c2ccccc2)cc(F)c1NS(C)(=O)=O [Example 166, N-(3-Ethynyl-5-fluoro-4-methanesulfonylamino-benzyl)-3-[2-(methyl-phenylamino)-6-trifluoromethyl-pyridin-3-yl]-acrylamide] | 69 nM
18 | CS(=O)(=O)Nc1ccc(CNC(=O)/C=C/c2ccc(N3CCCCC3)nc2)cc1F [Example 19, N-(3-Fluoro-4-methanesulfonylamino-benzyl)-3-(6-piperid-1-yl-pyridinyl-3-yl)-acrylamide] | > 10000 nM
19 | CS(=O)(=O)Nc1ccc(CNC(=O)/C=C/c2ccc(C(F)(F)F)nc2N2CCCCC2)cc1F [Example 26, N-(3-Fluoro-4-methanesulfonylamino-benzyl)-3-(2-piperid-1-yl-6-trifluoromethyl-pyridinyl-3-yl)-acrylamide] | 1100 nM
20 | CS(=O)(=O)Nc1ccc(CNC(=O)/C=C/c2ccc(Cl)nc2)cc1F [Examples 16] | > 10000 nM
21 | C#Cc1cc(CNC(=O)/C=C/c2ccc(C(F)(F)F)nc2Oc2cccnc2)cc(F)c1NS(C)(=O)=O [Example 134, N-(3-Ethynyl-5-fluoro-4-methanesulfonylamino-benzyl)-3-[2-(pyridin-3-yloxy)-6-trifluoromethyl-pyridin-3-yl]-acrylamide] | 2600 nM
22 | CCCN(C)c1nc(C(F)(F)F)ccc1/C=C/C(=O)NCc1ccc(NS(C)(=O)=O)c(F)c1 [Example 158, N-(3-Fluoro-4-methanesulfonylamino-benzyl)-3-[2-(N-methyl-N-propyl-amino)-6-trifluoromethyl-pyridin-3-yl]-acrylamide] | 480 nM
23 | CCCc1nc(C(F)(F)F)ccc1/C=C/C(=O)NCc1ccc(NS(C)(=O)=O)cc1 [Example 252, N-(4-Methanesulfonylamino-benzyl)-3-(2-propyl-6-trifluoromethyl-pyridin-3-yl)-acrylamide] | 330 nM
24 | CCCNc1nc(C(F)(F)F)ccc1/C=C/C(=O)NCc1ccc(NS(C)(=O)=O)c(Cl)c1 [Example 254, N-(3-Chloro-4-methanesulfonylamino-benzyl)-3-(2-propylamino-6-trifluoromethyl)-pyridin-3-yl-acrylamide] | 150 nM
25 | CS(=O)(=O)Nc1ccc(CNC(=O)/C=C/c2ccc(C(F)(F)F)nc2Cl)cc1F [Example 44, 3-(2-Chloro-6-trifluoromethyl-pyridin-3-yl)-N-(3-fluoro-4-methanesulfonylamino-benzyl)-acrylamide] | > 10000 nM
